Results: ChEMBL document CHEMBL4002634, “Benzoflavones as cholesterol esterase inhibitors: Synthesis, biological evaluation and docking studies” (Bioorg Med Chem Lett, 2017)
The source made the active and inactive calls. No cut-off for these calls is given here.

Assays:
[1] = molecular target: T1, Carboxylic ester hydrolase (Sus scrofa) (UniProt A0A286ZKB1); test: Inhibition of porcine cholesterol esterase at 50 nM using para-nitrophenyl butyrate as substrate after 5 mins in presence of sodium taurocholate by spectrophotometric method relative to control
T1 sequence (whole entry): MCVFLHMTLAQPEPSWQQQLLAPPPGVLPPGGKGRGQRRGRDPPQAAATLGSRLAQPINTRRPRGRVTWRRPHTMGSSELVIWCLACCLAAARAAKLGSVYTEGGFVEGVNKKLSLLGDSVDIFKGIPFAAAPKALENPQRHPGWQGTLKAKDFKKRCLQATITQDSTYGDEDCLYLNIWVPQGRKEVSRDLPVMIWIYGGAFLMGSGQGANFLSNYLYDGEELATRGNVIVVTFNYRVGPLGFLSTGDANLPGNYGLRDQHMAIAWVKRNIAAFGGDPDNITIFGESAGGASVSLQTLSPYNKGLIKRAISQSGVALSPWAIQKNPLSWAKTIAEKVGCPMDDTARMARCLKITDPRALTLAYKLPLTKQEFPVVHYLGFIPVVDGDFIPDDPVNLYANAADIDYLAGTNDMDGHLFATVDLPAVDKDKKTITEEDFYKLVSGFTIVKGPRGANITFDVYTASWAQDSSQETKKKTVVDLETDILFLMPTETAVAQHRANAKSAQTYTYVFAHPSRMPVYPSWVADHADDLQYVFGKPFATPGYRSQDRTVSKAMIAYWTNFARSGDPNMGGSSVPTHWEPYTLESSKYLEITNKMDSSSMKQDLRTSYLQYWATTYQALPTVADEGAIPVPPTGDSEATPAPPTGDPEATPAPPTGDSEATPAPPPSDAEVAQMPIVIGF

[2] = molecular target: T2, Carboxylic ester hydrolase (Sus scrofa, UniProt A0A286ZKB1); test: Inhibition of porcine cholesterol esterase using para-nitrophenyl butyrate as substrate after 5 mins in presence of sodium taurocholate by spectrophotometric method; conditions: read-out: IC50
T2 sequence (A0A286ZKB1 whole entry): T1 sequence (whole entry)

[3] = molecular target: T1, Carboxylic ester hydrolase (Sus scrofa); test: Inhibition of porcine cholesterol esterase at 5 nM using para-nitrophenyl butyrate as substrate after 5 mins in presence of sodium taurocholate by spectrophotometric method relative to control
[4] = molecular target: T1, Carboxylic ester hydrolase (Sus scrofa); test: Inhibition of porcine cholesterol esterase at 25 nM using para-nitrophenyl butyrate as substrate after 5 mins in presence of sodium taurocholate by spectrophotometric method relative to control
[5] = molecular target: T1, Carboxylic ester hydrolase (Sus scrofa); test: Inhibition of porcine cholesterol esterase at 1 nM using para-nitrophenyl butyrate as substrate after 5 mins in presence of sodium taurocholate by spectrophotometric method relative to control
[6] = molecular target: T1, Carboxylic ester hydrolase (Sus scrofa); test: Mixed-type inhibition of porcine cholesterol esterase at 1 to 50 nM using para-nitrophenyl butyrate as substrate after 5 mins in presence of sodium taurocholate by Line-weaver-Burk plot analysis
[7] = molecular target: T1, Carboxylic ester hydrolase (Sus scrofa); test: Inhibition of porcine cholesterol esterase at 10 nM using para-nitrophenyl butyrate as substrate after 5 mins in presence of sodium taurocholate by spectrophotometric method relative to control

Structure (SMILES)	inhibition [1] [%]	IC50 [2] [nM]	inhibition [3] [%]	inhibition [4] [%]	inhibition [5] [%]	inhibition [6]	inhibition [7] [%]
O=c1cc(-c2cc(F)cc(F)c2)oc2c1ccc1ccccc12	100	0.78	80	96	60	Active	90
O=c1cc(-c2ccc(F)c(C(F)(F)F)c2)oc2c1ccc1ccccc12	63	43	34	55	21		43
